Series [1] deals with MDA-MB-231, human mammary gland (epithelial) adenocarcinoma, estrogen receptor negative. The series is described as follows: Cell killing in MDA-MB-231. It is filed as cell-based. Particulars: for effectiveness of compositions comprising another dithiocarbonyl compared with PDC: same conditions as the PDC compositions. The procedure: (§1) To determine the effects of the present compositions, cells were grown in the indicated medium in either 12-well plates (to assess morphological changes and measure DNA synthesis); 6-well plates (for determination of apoptosis/necrosis); or 96-well plates (for determination of cellular proliferation by the MTT assay). All media contained 10% fetal bovine serum. In each experiment, the medium was replaced with fresh medium at 2 h. prior to treatment. Treatments were performed with sterile solutions of the compositions (made up either in the respective medium or water) for 1 min.-72 h. In some cases, treatments were done for 1 min., followed by incubation of washed cells for various time periods.
Cells were cultured in Leibovitz's L-15 cell culture medium (Gibco) and 10% fetal bovine serum; the medium was changed 6 h. prior to treatment. […] For DNA synthesis experiments, cells were incubated with [^3H]-thymidine (1 μCi/ml) between 40-50 mins. of treatment; for cell proliferation experiments, cells were trypsinized after treatment, re-plated, and viable cells counted 1 week later.

For series [2], the system named is T-47D, human mammary gland (epithelial) ductal carcinoma, estrogen receptor positive. The series is described as follows: Cell killing in T-47D. It is filed as cell-based. The procedure:
as §1
(§2) Cells were cultured in modified RPMI 1640 cell culture medium (see Gibco Catalogue), with 2 mM L-glutamine, 10 mM Hepes, 1 mM sodium pyruvate, 4.5 g/L glucose, 1.5 g/L sodium bicarbonate, 0.2 I.U. bovine insulin/ml, and 10% fetal bovine serum; the medium was changed 6 h. prior to treatment. […] For DNA synthesis experiments, cells were incubated with [^3H]-thymidine (1 μCi/ml) between 120-130 mins. of treatment; for cell proliferation experiments, cells were trypsinized after treatment, replated, and viable cells counted 1 week later.

The test system of series [3] is MCF-7, human breast carcinoma cells, estrogen receptor positive. The series is described as follows: Cell killing in MCF-7. It is filed as cell-based. Particulars: in the above experiments. The procedure: as §1
Cells were cultured in Dulbecco's modified Eagle's medium containing 2 mM L-glutamine and 10% fetal calf serum; the medium was changed 2 h prior to treatments. […] For DNA synthesis experiments, cells were incubated with [^3H]-thymidine ([…]) between 120-130 min of treatment; for cell proliferation experiments, cells were trypsinized after treatment, re-plated, and viable cells counted 1 week later.

Series [4] relates to MDA-MB-468, human mammary gland (epithelial) adenocarcinoma, estrogen receptor negative. Put plainly: Cell killing in MDA-MB-468. It is filed as cell-based. The following applies: in the above experiments. The procedure: as §1
Cells were cultured in Leibovitz's L-15 medium and 10% fetal bovine serum; the medium was changed 6 h. prior to treatment. […] For DNA synthesis experiments, cells were incubated with [^3H]-thymidine (1 μCi/ml) between 120-130 mins. of treatment; for cell proliferation experiments, cells were trypsinized after treatment, re-plated, and viable cells counted 1 week later.

Series [5] has as its system ZR-75-1, human mammary gland (epithelial) ductal carcinoma, ascites, estrogen receptor positive. The series is described as follows: Cell killing in ZR-75-1. It is filed as cell-based. The procedure:
as §1
as §2, with “ZR-75-1, human mammary gland (epithelial) ductal carcinoma, ascites, estrogen receptor positive. Cells” for “Cells”, “1640” for “1640 cell culture”, “medium” for “medium (see Gibco Catalogue),”, “re-plated,” for “replated,”

The subject of series [6] is BDF1 adult female mice. Put plainly: In vivo acute toxicological investigation, intraperitoneal. Particulars: alone, 0.5-2 mM in physiological saline, followed 21 days. The method, then: Specified pathogen free (SPF) hygienic category first generation hybrid BDF1 (C57B1 female×DBA/2 male) adult female mice weighing 22-23 g were used. The animals were kept in macrolon cages at 22-24 C (45-55% humidity), with a lighting regimen of 12/12 h light/dark.
The animals were followed for 21 days and evaluated based on survival and body weight. Seven animals were evaluated for each treatment.

Series [7] has as its system T-47D, 2R-75-1, A431, MDA-MB-231, AN3Ca, CaOV3. Put plainly: Proliferation of cancer cell lines. The class given is cell-based.
For series [8], the system named is normal cells. The series is described as follows: Proliferation of normal cells. The class given is cell-based.
[9] abbreviates: components at 50 μM PDC, 120 μM Zn, 100 μM EA, 3 mM DMETN, 2 h.

The source of these data is patent US6756063B2, “Methods and compositions for the treatment of human and animal cancers” (Zoltan Laboratories, LLC, priority 2001, dated 2004).

Take `CCN(CC)C(=S)SSC(=S)N(CC)CC` [disulfuram, tetraethylthiuram disulfide]: in series [1], the “effectiveness of compositions comprising another dithiocarbonyl compared with PDC” value is listed as “as effective as compositions comprising PDC”.
Consider `S=C(S)OC1CC2CC1C1CCCC21` (stereo not shown) [Composition D609], for which the “effectiveness of compositions comprising another dithiocarbonyl compared with PDC” value was “as effective as those comprising PDC” in series [2] (in the above experiments); “as effective as those comprising PDC” in series [3]; “as effective as those comprising PDC” in series [4]; “as effective as those comprising PDC” in series [5] (in the above experiments); “as effective as compositions comprising PDC” in series [1].
Take `C=C(CC)C(=O)c1ccc(OCC(=O)O)c(Cl)c1Cl` [EA, ethacrynic acid]: the “acute toxicity (survival and body weight)” value in series [6] is “not toxic”. Moreover, the cells killed result was “about 100%” in series [2] (setting [9]); “about 100%” in series [5] (setting [9]); “about 100%” in series [1] (60 μM EA alone, after 3 h); “about 70%” in series [1] (components at 25 μM PDC, 60 μM Zn, 60 μM EA, 3 mM DMETN, 40 min).
As to `CN(C)CCO` [DMETN, dimethylethanolamine], the “proliferation of cancer cell lines” value in series [7] is on record as “inhibits proliferation”. Besides, in series [8], the “proliferation of normal cells” value is on record as “generally increasing proliferation”.
